# Assay results published in patent publication US12091409B2, “Ether linked triazoles as NRF2 activators” (ASTEX THERAPEUTICS LIMITED, priority 2016, dated 2024).
# Where a name gives a salt, the structure may show the parent alone.
# System: NQO1 specific enzyme activity in BEAS-2B cells (marker for NRF2 activation)
# Assay: BEAS-2B NQO1 MTT Assay
# Format: cell-based
# Details: Homo sapiens, BEAS-2B, 48 h, NQO1 specific activity induction, 48 hours with compound
# Method in brief: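 Cells plated overnight at 37° C., 5% CO2, then exposed to compound for 48 hours. NQO1 activity read in crude lysates with MTT cocktail as kinetic absorbance at 570 nm over 30 minutes. pEC50 from Delta OD/min versus log concentration with a 3-parameter fit.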
row,Structure (SMILES),EC50 [µM]
1,"Cc1ccc(C(OCc2cn(CC3CCN(C4CCN(C)CC4)CC3)nn2)C(C)(C)C(=O)O)cc1CN1C[C@@H](C)Oc2ccccc2S1(=O)=O (stereo partly drawn) [Example 55, 2,2-Dimethyl-3-(4-methyl-3-(((R)-4-methyl-1,1-dioxido-3,4-dihydro-2H-benzo[b][1,4,5]oxathiazepin-2-yl)methyl)phenyl)-3-((1-((1′-methyl-[1,4′-bipiperidin]-4-yl)methyl)-1H-1,2,3-triazol-4-yl)methoxy)propanoic Acid, Formic Acid Salt]",0.1 to 1
2,"CCCn1cc(COC(c2ccc(C)c(CN3C[C@@H](C)Oc4ccccc4S3(=O)=O)c2)C(C)(C)C(=O)O)nn1 (stereo partly drawn) [Example 8, 2,2-Dimethyl-3-(4-methyl-3-(((R)-4-methyl-1,1-dioxido-3,4-dihydro-2H-benzo[b][1,4,5]oxathiazepin-2-yl)methyl)phenyl)-3-((1-propyl-1H-1,2,3-triazol-4-yl)methoxy)propanoic acid]",0.001 to 0.01
3,"CCCC(=O)N1CCC(Cn2cc(COC(c3ccc(C)c(CN4C[C@@H](C)Oc5ccccc5S4(=O)=O)c3)C(C)(C)C(=O)O)nn2)CC1 (stereo partly drawn) [Example 34, 3-((1-((1-Butyrylpiperidin-4-yl)methyl)-1H-1,2,3-triazol-4-yl)methoxy)-2,2-dimethyl-3-(4-methyl-3-(((R)-4-methyl-1,1-dioxido-3,4-dihydro-2H-benzo[b][1,4,5]oxathiazepin-2-yl)methyl)phenyl)propanoic acid]",0.01 to 0.1
4,"CC[C@@H]1CN(Cc2cc(C(OCc3cn(Cc4cc(C)cc(Cn5cc(CO)nn5)c4)nn3)C(C)(C)C(=O)O)ccc2C)S(=O)(=O)c2ccccc2O1 (stereo partly drawn) [Example 27, 3-(3-(((R)-4-ethyl-1,1-dioxido-3,4-dihydro-2H-benzo[b][1,4,5]oxathiazepin-2-yl)methyl)-4-methylphenyl)-3-((1-(3-((4-(hydroxymethyl)-1H-1,2,3-triazol-1-yl)methyl)-5-methylbenzyl)-1H-1,2,3-triazol-4-yl)methoxy)-2,2-dimethylpropanoic acid]",0.001 to 0.01
5,"CCn1cc(COC(c2ccc(C)c(CN(CC3CCCCCC3)C(C)=O)c2)C(C)(C)C(=O)O)nn1 (centres unmarked) [Example 54, 3-(3-((N-(cycloheptylmethyl)acetamido)methyl)-4-methylphenyl)-3-((1-ethyl-1H-1,2,3-triazol-4-yl)methoxy)-2,2-dimethylpropanoic acid]",0.1 to 1
6,"CC[C@@H]1CN(Cc2cc(C(OCc3cn(Cc4cccc(Cn5cc(CO)nn5)c4)nn3)C(C)(C)C(=O)O)ccc2C)S(=O)(=O)c2ccccc2O1 (stereo partly drawn) [Example 28, 3-(3-(((R)-4-ethyl-1,1-dioxido-3,4-dihydro-2H-benzo[b][1,4,5]oxathiazepin-2-yl)methyl)-4-methylphenyl)-3-((1-(3-((4-(hydroxymethyl)-1H-1,2,3-triazol-1-yl)methyl)benzyl)-1H-1,2,3-triazol-4-yl)methoxy)-2,2-dimethyl-propanoic acid]",0.01 to 0.1
7,"Cc1ccc(C(OCc2cn(Cc3cccc(Cn4cc(C(=O)O)nn4)c3)nn2)C(C)(C)C(=O)O)cc1CN1C[C@@H](C)Oc2ccccc2S1(=O)=O (stereo partly drawn) [Example 43, 1-(3-((4-((2-Carboxy-2-methyl-1-(4-methyl-3-(((R)-4-methyl-1,1-dioxido-3,4-dihydro-2H-[b][1,4,5]oxathiazepin-2-yl)methyl)phenyl)propoxy)methyl)-1H-1,2,3-triazol-1-yl)methyl)benzyl)-1H-1,2,3-triazole-4-carboxylic acid]",0.1 to 1
8,"CCn1cc(CO[C@@H](c2ccc(C)c(CN3CC(C)Cc4ccncc4S3(=O)=O)c2)C(C)(C)C(=O)O)nn1 (stereo in doubt) [Example 73, (3S)-((1-ethyl-1H-1,2,3-triazol-4-yl)methoxy)-2,2-dimethyl-3-(4-methyl-3-(((R)-4-methyl-1,1-dioxido-4,5-dihydropyrido[4,3-f][1,2]thiazepin-2(3H)-yl)methyl)phenyl)propanoic acid]",0.01 to 0.1
9,"CC[C@@H]1CN(Cc2cc(C(OCc3cn(Cc4cccc(-c5ccc(C(=O)O)c(F)c5)c4)nn3)C(C)(C)C(=O)O)ccc2C)S(=O)(=O)c2ccccc2O1 (stereo partly drawn) [Example 24, 3′-((4-((2-Carboxy-1-(3-(((R)-4-ethyl-1,1-dioxido-3,4-dihydro-2H-benzo[b][1,4,5]oxathiazepin-2-yl)methyl)-4-methylphenyl)-2-methylpropoxy)methyl)-1H-1,2,3-triazol-1-yl)methyl)-3-fluoro-[1,1′-biphenyl]-4-carboxylic acid]",0.01 to 0.1
10,CC[C@@H]1CN(Cc2cc([C@H](OCc3cn(C4COC4)nn3)C(C)(C)C(=O)O)ccc2C)S(=O)(=O)c2ccccc2O1 [Example 105],0.001 to 0.01
11,"CCC(=O)N1CCC(Cn2cc(COC(c3ccc(C)c(CN4C[C@@H](C)Oc5ccccc5S4(=O)=O)c3)C(C)(C)C(=O)O)nn2)CC1 (stereo partly drawn) [Example 33, 2,2-Dimethyl-3-(4-methyl-3-(((R)-4-methyl-1,1-dioxido-3,4-dihydro-2H-benzo[b][1,4,5]oxathiazepin-2-yl)methyl)phenyl)-3-((1-((1-propionylpiperidin-4-yl)methyl)-1H-1,2,3-triazol-4-yl)methoxy)propanoic acid]",0.01 to 0.1
12,"Cc1ccc(C(OCc2cn(CC3CCN(C(N)=O)CC3)nn2)C(C)(C)C(=O)O)cc1CN1C[C@@H](C)Oc2ccccc2S1(=O)=O (stereo partly drawn) [Example 100, 3-((1-((1-Carbamoylpiperidin-4-yl)methyl)-1H-1,2,3-triazol-4-yl)methoxy)-2,2-dimethyl-3-(4-methyl-3-(((R)-4-methyl-1,1-dioxido-3,4-dihydro-2H-benzo[b][1,4,5]oxathiazepin-2-yl)methyl)phenyl)propanoic acid]",0.1 to 1
13,"CCn1cc(CO[C@H](c2ccc(C)c(CN3C[C@@H](C)Cc4ncccc4S3(=O)=O)c2)C(C)(C)C(=O)O)nn1 [Example 62, (3R)-((1-ethyl-1H-1,2,3-triazol-4-yl)methoxy)-2,2-dimethyl-3-(4-methyl-3-(((S)-4-methyl-1,1-dioxido-4,5-dihydropyrido[2,3-f][1,2]thiazepin-2(3H)-yl)methyl)phenyl)propanoic acid]",< 0.001
14,"CC[C@H]1Cc2ccccc2S(=O)(=O)N(Cc2cc([C@@H](OCc3cn(C)nn3)C(C)(C)C(=O)O)ccc2C)C1 [Example 119, (R)-3-(3-(((S)-4-Ethyl-1,1-dioxido-4,5-dihydrobenzo[f][1,2]thiazepin-2(3H)-yl)methyl)-4-methylphenyl)-2,2-dimethyl-3-((1-methyl-1H-1,2,3-triazol-4-yl)methoxy)propanoic acid]",< 0.001
15,"Cc1ccc(C(OCc2cn(CCOCCN=[N+]=[N-])nn2)C(C)(C)C(=O)O)cc1CN1C[C@@H](C)Oc2ccccc2S1(=O)=O (single isomer, unassigned) [Example 14]",0.001 to 0.01
16,"CC[C@@H]1Cc2ccccc2S(=O)(=O)N(Cc2cc([C@@H](OCc3cn(CC)nn3)C(C)(C)C(=O)O)ccc2C)C1 [Example 77, (3R)-((1-ethyl-1H-1,2,3-triazol-4-yl)methoxy)-2,2-dimethyl-3-(4-methyl-3-(((R)-4-ethyl-1,1-dioxido-4,5-dihydrobenzo[f][1,2]thiazepin-2(3H)-yl)methyl)phenyl)propanoic acid]",0.001 to 0.01

# Same assay, conditions: NQO1 specific activity induction, 48 hours with compound
row,Structure (SMILES),EC50 [µM]
1,"Cc1ccc(C(OCc2cn(CC(C)C)nn2)C(C)(C)C(=O)O)cc1CN1C[C@@H](C)Oc2ccccc2S1(=O)=O (single isomer, unassigned) [Example 13]",0.001 to 0.01
